Series [1] has as its system healthy Chinese male subjects. The series is described as follows: Safety evaluation. In kind it is in vivo, human (healthy Chinese male subjects).
The test system of series [2] is patients with advanced NSCLC with EGFR mutations. Particulars: FLAURA clinical study; cited from earlier work.
The test system of series [3] is healthy Chinese male subjects. The series is described as follows: Safety evaluation. The format is in vivo, human (healthy Chinese male subjects). Particulars: Group 2.

On to `CCC(C)n1ncn(-c2ccc(N3CCN(c4ccc(OCC5COC(Cn6cncn6)(c6ccc(Cl)cc6Cl)O5)cc4)CC3)cc2)c1=O` (stereo not shown) [Itraconazole], for which the “subjects with TEAEs” value in series [1] (Group 1, monotherapy phase with Itraconazole 200 mg QD) is given as 42.9%. Moreover, in series [1] (Group 1, 13 TEAEs in 10 subjects), the “subjects with TEAEs also related to Itraconazole” value is reported as 66.7%.

Consider `C=CC(=O)Nc1cc(Nc2nccc(-c3cn(C)c4ccccc34)n2)c(OC)cc1N(C)CCN(C)C` [Osimertinib], for which the median overall survival in series [2] is 38.6 months.

On to `CO[C@H]1/C=C/O[C@@]2(C)Oc3c(C)c(O)c4c(O)c(c(/C=N/N5CCN(C)CC5)c(O)c4c3C2=O)NC(=O)/C(C)=C\C=C\[C@H](C)[C@H](O)[C@@H](C)[C@@H](O)[C@@H](C)[C@H](OC(C)=O)[C@@H]1C` [Rifampicin], for which the “subjects with TEAEs also related to Rifampicin” value in series [3] was determined as 20.0%.

(Values after publication PMC12060349 (BMC Pharmacology & Toxicology, 2025).)
